The source of these data is PMC11017246, “Discovery of GLPG2737, a Potent Type 2 Corrector of CFTR for the Treatment of Cystic Fibrosis in Combination with a Potentiator and a Type 1 Co-corrector” (Journal of Medicinal Chemistry, 2024).

A short description of one series: PK mouse. In kind it is in vivo.
A short description of series [1]: Hepatocyte stability, mouse. In kind it is in vitro ADME. To be noted: mouse hepatocytes. The procedure:
The hepatocyte stability assay was performed by incubation of test compound at 1 μM, 0.03% DMSO in modified Krebs–Henseleit buffer with suspension of pooled cryopreserved hepatocytes (BioIVT, Hicksville, NY, USA) from mouse, rat, dog, or human (BioIVT, Hicksville, NY, USA) at 0.5 million viable hepatocytes/mL. Before adding the hepatocytes (time zero) and after 10, 20, 45, 90, 120, and 180 min of incubation (n = 2) at 37 °C while gently shaking, the reaction was stopped and proteins were precipitated with an excess of acetonitrile containing an internal standard. The samples were mixed, centrifuged, and filtered, and the supernatant was analyzed by liquid chromatography–mass spectrometry/mass spectrometry (LC–MS/MS). The instrument responses (peak areas/IS peak areas) were referenced to the zero-time point samples (considered as 100%) in order to determine the percentage of compound remaining.

Series [2] can be described thus: Measured pKa (potentiometric and UV methods). In kind it is physicochemical. The following applies: measured at Charles River.

Where two headings read alike, the source gives them in different places.

As for `COC1CCN(C2CCN(c3cc(C(=O)NS(=O)(=O)N(C)C)nc4c3c(C3CCC3)nn4-c3ccc(F)cc3)CC2)CC1` [Compound 52, 3-Cyclobutyl-N-(N,N-dimethylsulfamoyl)-1-(4-fluorophenyl)-4-(4-methoxy-[1,4′-bipiperidin]-1′-yl)-1H-pyrazolo[3,4-b]pyridine-6-carboxamide], the “F (%) mouse” value in the series “PK mouse” (5 mg/kg po) came to 71.3%. The Vd in “PK mouse” (plasma, 1 mg/kg iv, read-out: Vss mouse) was determined as 1.27 L/kg. Further, in “PK mouse” (plasma, 1 mg/kg iv, read-out: t1/2 iv mouse (converted)), the half-life was 3.22 h. The clearance in “PK mouse” (plasma, iv, 1 mg/kg, 1 mg/kg iv, read-out: Clp mouse (converted)) is 4.67 mL/min/kg. In addition, in “PK mouse” (plasma, iv, 1 mg/kg, 1 mg/kg iv, unbound clearance, read-out: Cl.u mouse (converted)), the Unbound clearance was 1110 mL/min/kg. In addition, in series [1], the “Hepatocyte stability: %LBF mouse” value stood at 24 %LBF. Also, the “Hepatocyte stability: predicted hepCl mouse” value in series [1] (1 µM) is 31.7 mL/min/kg. Besides, the pKa in series [2] (UV method, read-out: measured acylsulfonamyl pKa) worked out at 4.74; in series [2] (UV method, read-out: measured piperidine pKa), 8.51; in series [2] (potentiometric method, read-out: measured acylsulfonamyl pKa), 4.96; in series [2] (potentiometric method, read-out: measured piperidine pKa) it was 8.42. The mutagenicity entry in “Ames II test” is reported as “not mutagenic”.

In general, pKa refers to the negative logarithm of the acid dissociation constant.
